Results on six compounds are retold here after patent US20080199503A1, “Pharmaceutical Compositions Preparation of Peptides, Secreted by the Snake Venom Glands, Particularly of Bothrops Jararaca, Vasopeptidases Inhibitors, Evasins, Their Analogues, Derivatives and Products Associated, Thereof, for Development of Applications and Use in Chronic-Degenerative Diseases” (priority 2002, published 2008).

As usually defined, the Ki is the equilibrium dissociation constant of an inhibitor or competing ligand from its target.

For data set [1] the following is noted: in vivo; cited from earlier work.
Data set [2] addresses C-terminal catalytic site of the Angiotensin I converting enzyme (recombinant ACE) (Homo sapiens, UniProt P12821). The data set is described as follows: Inhibition of the C-terminal catalytic site of recombinant ACE (fluorogenic substrate). The format is biochemical. As to the method: (§1) The fractions from purification were submitted to mass spectrometry analysis to conforming the Evasins molar mass after purification. • The enzyme assays for the recombinant ACE inhibition were conducted using the substrate Mca-Ala-Ser-Asp-Lys-DpaOH, at 25° C., in a 50 mM Hepes buffer (pH 6.8), 200 mM NaCl and […] ZnCl2.

In data set [3] the target is N-terminal catalytic site of the Angiotensin I converting enzyme (recombinant ACE) (Homo sapiens, UniProt P12821). As to the kind of experiment: Inhibition of the N-terminal catalytic site of recombinant ACE (fluorogenic substrate). It counts as biochemical. As to the method:
as §1

Data set [4] has as its target neutral endopeptidase (recombinant NEP) (Homo sapiens, UniProt P08473). The data set is described as follows: Fluorometric assay of recombinant NEP inhibition. It counts as biochemical. As for the experimental part: The fluorometric assays for the recombinant NEP inhibition were conducted using the substrate Abz-RL-EDDnp in a 50 mM Tris-HCl buffer, pH 7.5, at 37° C. […] The Evasins were pre-incubated with the enzyme before the substrate addition.
The inhibition constants (Ki) values were determined by means of the ratio of the apparent inhibition constant (Ki(app)) and the substrate Km (Salvesen and Nagase, 1990). In: Proteolytic enzymes a practical aproach, Beynon and Bond Eds Oxford University Press, England, 87-88).

The test system of data set [5] is anesthetized normotensive rats (WKY) blood pressure. The data set is described as follows: Potentiation of the bradykinin hypotensive effect on anesthetized rat blood pressure. It counts as in vivo. To be noted: for Bk potentiation(%): hypotension increase of a single bradykinin dose after 200 nmol of potentiator i.v., anesthetized rats; for Duration time: time to reduce the potentiating effect by 50%, 200 nmol/rat i.v., unit not given, minutes. As to the method:
The potentiating activity of the bradykinin hypotensive effect was tested in anesthetized rats. Normotensive male rats (WKY) were anesthetized using pentobarbital sodium (Hypnol® Cristália, 50 mg/kg, intraperitoneal) and placed on a controlled-temperature board for maintaining the body temperature between 36.5° C. and 37° C. A polygraph coupled to a physiological transducer was used. The blood pressure ranging values were obtained by integrating the areas limited by the baseline pressure and comparing them to the values obtained from control assays. In in vivo assays, the potentiating activity of Evasins on the hypotensive effect of bradykinin on anesthetized rat blood pressure was observed. Two parameters were determined for comparison of the potentiating effects of bradykinin on the anesthetized rat blood pressure (n=5):
1) Intensity of the potentiating effect of the hypotensive activity of bradykinin on the anesthetized rats blood pressure: This value was defined as the hypotension percentage (%) increase caused by a single dose of bradykinin obtained after the infusion of 200 nmol of potentiator. 2) Potentiating effect length: Time required to reduce the potentiating effect on a single dose of bradykinin by 50%.

The test system of data set [6] is non anesthetized hypertensive rat blood pressure. The data set is described as follows: Blood pressure of non anesthetized hypertensive rat, i.v. bolus of Evasin. The format is in vivo. To be noted: 70 nmol/100 g of body weight, non-anesthetized hypertensive rats. An excerpt:
(§2) One day before the assay, the animals were subjected to a surgery for cannulation of the femoral artery and vein. The rats were anesthetized with ether and placed in dorsal decubitus on a surgical board. A small skin incision was made, thus separating the musculature for locating the femoral vasculonervous bunch. […] After insertion, the cannulas were tied to the bunch using a surgical line. Next, the cannulas were directed subcutaneously with the aid of a trocater to the scapular waist where they were exteriorized and secured using a suture line. The arterial cannula was used for recording the cardiovascular parameters and the venous cannula for administering the drugs.
The blood pressure and the heart rate were recorded one day after the femoral artery and vein cannulation. The assay was conducted with non-anesthetized animals with free movement. The rats pulsed arterial pressure (PAP), the mean arterial pressure (MAP) and heart rate (HR) were monitored by a computer, using a data acquisition system (BIOPAC). The data were collected during all the experiments.
Before the drug administration, the rats PBP, MBP and HR were monitored. After the bolus injection of Evasin in a total volume of 0.2 mL (NaCl 0.9% solution), the resulting hypotensive effect and the effect length were monitored. In this assay, standard doses of each peptide (70 nmol/100 g of body weight) were tested (n=4). […] Evasin-5a and the Evasin-7a produced a maximum MBP reduction of −19.17±4.36 mmHg and 13.00±2.78 mmHg respectively.

Data set [7] relates to awake hypertensive rat blood pressure. As to the kind of experiment: Blood pressure of awake hypertensive rat, free versus cyclodextrin-encapsulated Evasin. It counts as in vivo. To be noted: bolus injection, 0.071 nmol/100 g of body weight, awake hypertensive rats.
From the text: as §2, with “This example describes the inclusion compound administration effect between the Evasin-5a and hydroxiprolil-[…]-cyclodextrina BPβCD) on the blood pressure of the hypertensive rats. One” for “One”, “line.” for “line. The arterial cannula was used for recording the cardiovascular parameters and the venous cannula for administering the drugs.”
(§3) The blood pressure and the heart rate were recorded one day after the femoral artery and vein cannulation. The assay was conducted with non-anesthetized animals with free movement. The animals pulsed arterial pressure (PAP), the mean arterial pressure (MAP) and heart rate (HR) were monitored by a computer, using a data acquisition system (BIOPAC). The data were collected during all the experiments.
Before the drug administration, the rats PBP, MBP and HR were monitored during 60 minutes. After the bolus injection of Evasin in a total volume of 0.2 mL (NaCl 0.9% solution), the resulting hypotensive effect and the effect length were monitored. […]

The test system of data set [8] is SHR and TGR(mREN2)L27 hypertensive rats blood pressure. As to the kind of experiment: Infusion of Evasin 5a in awake hypertensive rats of different strain. It counts as in vivo, rat. The following applies: for decrease of the MAP: infusion 900 μg/100 g corporal weight/hour.
From the text: One day before the assay, the animals were subjected to a surgery for cannulation of the femoral artery and vein. The rats were anesthetized with ether and placed in dorsal decubitus on a surgical board. A small skin incision was made, thus separating the musculature for locating the femoral vasculonervous bunch. […] After insertion, the cannulas were tied to the bunch using a surgical line. Next, the cannulas were directed subcutaneously with the aid of a trocater to the scapular waist where they were exteriorized and secured using a suture line.
as §3
Before the drug administration, the rats PBP, MBP and HR were monitored during 60 minutes. During and after the infusion of the Evasin 5a, 900 μg/100 g corporal weight/hour in NaCl solution 0.9% (n=6), the cardiovascular parameters were registered. The administration of the evasin-5a in both strains produced the same decreased of the MAP 28±2.7 mmHg and 34±0.9 mmHg in the SHR and TGR (mREN2) L27 respectively. However, it was observed that the relevant difference in time duration effect after the infusion interruption was over 6 hours in the SHR and only 1 hour in the TGRs. These differences indicate important variations of the biochemical mechanisms of the Evasins 5a action with different degree for the renin angiotensin system activation.

For data set [9], the system named is rostro-ventrolateral medulla of freely moving rats. The following applies: free (not encapsulated), 25 to 50 ng; cited from earlier work.
The conditions of data set [10]: cited from earlier work.
Setting [11] is: recombinant ACE, substrate Mca-Ala-Ser-Asp-Lys-DpaOH, 25° C., pH 6.8, read-out: ECA - Ki, C-terminal.
[12] abbreviates: recombinant ACE, substrate Mca-Ala-Ser-Asp-Lys-DpaOH, 25° C., pH 6.8, read-out: ECA - Ki, N-terminal.
The mark [13] stands for this setting: recombinant NEP, substrate Abz-RL-EDDnp, pH 7.5, 37° C., read-out: NEP - Ki.

Where two headings read alike, the source gives them in different places. Square brackets hold non-standard residues; d marks the D form. Peptide text beside a SMILES is read from it. pGlu = O=C1CC[C@@H](C(=O)O)N1

Chain of N-terminal catalytic site of the Angiotensin I converting enzyme (recombinant ACE) (P12821 40-624 limits assumed, species assumed): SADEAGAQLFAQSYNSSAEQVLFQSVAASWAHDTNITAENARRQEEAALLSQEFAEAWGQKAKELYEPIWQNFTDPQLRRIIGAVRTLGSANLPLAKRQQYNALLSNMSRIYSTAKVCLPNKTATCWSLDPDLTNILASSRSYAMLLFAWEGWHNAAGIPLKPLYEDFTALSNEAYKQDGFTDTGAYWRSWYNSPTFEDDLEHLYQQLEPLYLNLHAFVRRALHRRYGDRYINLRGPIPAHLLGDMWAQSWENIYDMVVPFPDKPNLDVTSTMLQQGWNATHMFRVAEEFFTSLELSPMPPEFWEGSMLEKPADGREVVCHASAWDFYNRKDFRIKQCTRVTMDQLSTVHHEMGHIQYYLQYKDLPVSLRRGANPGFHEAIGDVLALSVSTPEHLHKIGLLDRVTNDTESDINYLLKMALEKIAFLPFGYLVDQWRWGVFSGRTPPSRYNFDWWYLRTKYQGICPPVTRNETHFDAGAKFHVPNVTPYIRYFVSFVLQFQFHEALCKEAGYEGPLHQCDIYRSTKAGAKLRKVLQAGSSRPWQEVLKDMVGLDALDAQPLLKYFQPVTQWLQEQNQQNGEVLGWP
Chain of neutral endopeptidase (recombinant NEP) (P08473 whole entry, species assumed): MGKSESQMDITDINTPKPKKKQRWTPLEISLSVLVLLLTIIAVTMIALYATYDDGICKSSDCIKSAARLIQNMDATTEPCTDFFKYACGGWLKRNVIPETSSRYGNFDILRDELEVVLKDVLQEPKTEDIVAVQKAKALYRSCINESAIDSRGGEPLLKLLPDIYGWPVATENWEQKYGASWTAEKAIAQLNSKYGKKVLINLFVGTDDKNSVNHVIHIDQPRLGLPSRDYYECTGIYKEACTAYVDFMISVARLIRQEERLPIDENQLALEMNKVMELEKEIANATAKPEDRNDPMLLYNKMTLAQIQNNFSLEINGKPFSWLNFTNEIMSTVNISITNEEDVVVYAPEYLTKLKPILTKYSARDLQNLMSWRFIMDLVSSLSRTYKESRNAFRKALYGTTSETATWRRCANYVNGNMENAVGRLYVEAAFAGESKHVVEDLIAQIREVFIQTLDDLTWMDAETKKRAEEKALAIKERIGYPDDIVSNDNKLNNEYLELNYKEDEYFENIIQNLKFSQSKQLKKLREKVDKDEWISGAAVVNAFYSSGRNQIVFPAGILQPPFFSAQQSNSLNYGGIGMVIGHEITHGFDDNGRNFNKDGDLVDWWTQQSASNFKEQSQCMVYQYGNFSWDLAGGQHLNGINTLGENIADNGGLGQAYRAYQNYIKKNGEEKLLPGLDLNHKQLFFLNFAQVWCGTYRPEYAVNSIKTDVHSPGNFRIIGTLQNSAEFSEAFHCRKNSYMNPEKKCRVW
Chain of C-terminal catalytic site of the Angiotensin I converting enzyme (recombinant ACE) (P12821 643-1222 limits assumed, species assumed): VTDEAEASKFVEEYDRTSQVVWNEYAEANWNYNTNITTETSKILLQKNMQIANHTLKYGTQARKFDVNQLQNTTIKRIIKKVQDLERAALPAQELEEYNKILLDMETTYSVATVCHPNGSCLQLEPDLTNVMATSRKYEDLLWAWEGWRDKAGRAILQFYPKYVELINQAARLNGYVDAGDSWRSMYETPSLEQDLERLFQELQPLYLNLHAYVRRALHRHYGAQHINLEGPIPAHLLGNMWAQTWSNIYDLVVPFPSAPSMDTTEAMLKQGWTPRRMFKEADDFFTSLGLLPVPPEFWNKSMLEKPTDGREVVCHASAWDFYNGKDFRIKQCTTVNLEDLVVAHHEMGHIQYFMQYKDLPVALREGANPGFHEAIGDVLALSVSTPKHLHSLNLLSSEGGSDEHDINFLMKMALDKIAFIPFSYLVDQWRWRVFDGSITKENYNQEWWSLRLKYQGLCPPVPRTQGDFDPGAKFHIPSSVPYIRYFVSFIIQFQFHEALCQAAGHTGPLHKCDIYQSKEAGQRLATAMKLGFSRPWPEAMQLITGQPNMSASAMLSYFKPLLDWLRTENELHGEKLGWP

`C[C@H](CS)C(=O)N1CCC[C@H]1C(=O)O` [Captopril]: the “drug absorption time when administered alone” value in data set [1] was 1 h.

As for `CC[C@H](C)[C@H](NC(=O)[C@@H]1CCCN1C(=O)CNC(=O)[C@H](CC(=O)O)NC(=O)[C@@H]1CCC(=O)N1)C(=O)N1CCC[C@H]1C(=O)N1CCC[C@H]1C(=O)O` [EVASIN-7a, <EDGPIPP] ([pGlu]DGPIPP-OH; C-terminus assumed), the figures for the Ki in data set [2] (setting [11]), in data set [3] (setting [12]) and in [4] (setting [13]) were 40 µM, 70 µM and 492 µM, respectively. Moreover, the “Bk potentiation(%)” value in data set [5] is given as 41.8%. Besides, in data set [5], the Duration time turned out to be 120. The hypotensive effect length result in data set [6] is recorded as “more than 100 minutes”. Moreover, the “reduction in the mean blood pressure (maximum)” value (shortened to “reduction … (maximum)”) in [6] turned out to be 13.00±2.78 mmHg.

Turning to `C[C@H](NC(=O)[C@H](Cc1c[nH]c2ccccc12)NC(=O)[C@H](CCCCN)NC(=O)[C@@H]1CCC(=O)N1)C(=O)N1CCC[C@H]1C(=O)O` [EVASIN-5a, <EKWAP] ([pGlu]KWAP-OH; C-terminus assumed), the Ki in data set [2] (setting [11]) worked out at 1.28 µM. The Ki in data set [3] (setting [12]) came to 0.399 µM. The Ki in [4] (setting [13]) was found to be 550 µM. Also, in data set [5], the “Bk potentiation(%)” value stood at 102.5% and the Duration time is reported as 10. In addition, in data set [6], the hypotensive effect length worked out at 37 min and the “reduction … (maximum)” value is listed as −19.17±4.36 mmHg. Further, in data set [7], the effect length stood at 38 min and the “maximum hypotensive effect, reduction of MAP” value was 23±4.2 mmHg. In data set [8] (SHR), the “time duration of effect after the infusion interruption” value was “over 6 hours” and the “decrease of the MAP” value is given as 28±2.7 mmHg. In [8] (TGR (mREN2) L27), the “decrease of the MAP” value is reported as 34±0.9 mmHg. The “time duration of effect after the infusion interruption” value in data set [8] (TGRs) is 1 h.

Take “Ang-(1-7) (DRVYIHP; Angiotensin 1-7; UniProt P01019 25-31, looked up) [free Ang-(1-7), angiotensinergic peptide, not encapsulated]”: in [9], the “duration of the increase” value is “approximately 10 min” and the “increase of blood pressure” value is 15 mmHg.

Consider `CC[C@H](C)[C@H](NC(=O)[C@H](CCC(N)=O)NC(=O)[C@@H]1CCCN1C(=O)[C@H](Cc1c[nH]cn1)NC(=O)[C@@H]1CCCN1C(=O)[C@H](Cc1c[nH]c2ccccc12)NC(=O)[C@H](CC(N)=O)NC(=O)[C@@H]1CCC(=O)N1)C(=O)N1CCC[C@H]1C(=O)N1CCC[C@H]1C(=O)O` [EVASIN-10c, <ENWPHPQIPP] ([pGlu]NWPHPQIPP-OH; C-terminus assumed), for which the Ki in data set [2] is 0.0005 µM. The “selectivity for the C-terminal site” value in [2] (C-terminal versus N-terminal site of ACE) stood at 400 times. The Ki in data set [3] stood at 0.2 µM. For the same compound, the inhibition constant (Ki) in [4] was 253 µM. For the same compound, in data set [5], the “Bk potentiation(%)” value came out at 195% and the Duration time is 95. Further, in [6], the hypotensive effect length came out at 94 min and the “reduction … (maximum)” value is on record as −29.5±9.50 mmHg.

As to `CC[C@H](C)[C@H](NC(=O)[C@H](CCC(N)=O)NC(=O)[C@@H]1CCCN1C(=O)[C@H](CCCNC(=N)N)NC(=O)[C@@H]1CCCN1C(=O)[C@H](Cc1c[nH]c2ccccc12)NC(=O)[C@@H]1CCC(=O)N1)C(=O)N1CCC[C@H]1C(=O)N1CCC[C@H]1C(=O)O` [EVASIN-9a, <EWPRPQIPP], the Ki is 0.001 µM in data set [2] (setting [11]), 0.1 µM in data set [3] (setting [12]) and 86 µM in [4] (setting [13]). The hypotensive effect length in data set [6] stood at 84 min. Besides, the “reduction … (maximum)” value in data set [6] is −27.0±1.50 mmHg. The “antihypertensive activity, intravenously” value in [10] (administered intravenously) was “has an antihypertensive activity”. In addition, the “antihypertensive activity, orally” value in [10] (given orally) was “inactive”.
